This note sets out measurements from patent US20110251238A1, “PPAR AGONIST COMPOSITIONS AND METHODS OF USE” (BIOPHARMED, priority 2008, published 2011).

The structures appear in SMILES notation.

The term IC50 denotes the point on the concentration scale where inhibition reaches its midpoint.

The test system of one assay is Host. Put plainly: Growth inhibition, MTT colorimetric assay, Host. It counts as cell-based. The following applies: 72 h; 3 days with drug; means of six values; unit inferred; read-out: IC50 Host. A digest of the protocol: (§1)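 Cells were cultured with compound for 3 days, and inhibition of proliferation was read by MTT colorimetric assay. Values are IC50, each the mean of six determinations with standard errors below 5% of the mean.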

The test system of a further assay is SKMEL28 (human melanoma). Put plainly: Growth inhibition, MTT colorimetric assay, SKMEL-28. It counts as cell-based. The following applies: Homo sapiens, SK-MEL-28, 72 h; melanoma; 3 days with drug; means of six values; unit inferred; read-out: IC50 SKMEL-28. Put shortly:
as §1
(Formazan colour is commonly taken as a measure of viable cells.)

Turning to `Oc1ccc(CN(Cc2ccc(C(F)(F)F)cc2)Cc2ccc(O)c3ncccc23)c2cccnc12` [BPM18,708, 5,5′-(4-(trifluoromethyl)benzylazanediyl)bis(methylene)diquinolin-8-ol], the half-inhibitory concentration (IC50) was 97 nM with Host and over 10000 nM in the assay on SKMEL28 (human melanoma).
